Here are results for 4 molecules from publication PMC6679423 (International Journal of Molecular Sciences, 2019).

Marks after values point to notes of the source that are not given here.

One data set deals with CYP3A4. Particulars: cited from earlier work.
The target of a further data set is T1, human recombinant CYP1A1 (Homo sapiens, UniProt P04798).
T1 construct: purchased Gentest Corp; host or cells: insect cells (baculovirus)
T1 sequence (P04798 1-512): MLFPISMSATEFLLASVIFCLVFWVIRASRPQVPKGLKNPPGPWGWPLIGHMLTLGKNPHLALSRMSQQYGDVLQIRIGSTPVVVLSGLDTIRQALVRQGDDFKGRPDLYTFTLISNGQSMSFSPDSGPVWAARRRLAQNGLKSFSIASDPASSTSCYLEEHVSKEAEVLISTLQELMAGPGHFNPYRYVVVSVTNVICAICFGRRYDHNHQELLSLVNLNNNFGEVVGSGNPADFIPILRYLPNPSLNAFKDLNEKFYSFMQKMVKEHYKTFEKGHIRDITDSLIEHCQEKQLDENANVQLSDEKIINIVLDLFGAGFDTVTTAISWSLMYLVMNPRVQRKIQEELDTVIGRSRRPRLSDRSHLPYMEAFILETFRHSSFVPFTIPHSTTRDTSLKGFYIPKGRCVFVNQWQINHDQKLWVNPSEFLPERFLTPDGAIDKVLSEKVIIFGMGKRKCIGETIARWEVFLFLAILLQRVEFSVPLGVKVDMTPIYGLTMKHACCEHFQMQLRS
The experiment in a line: Vandetanib oxidation by human recombinant CYP1A1 (Supersomes). In kind it is in vitro ADME. Here is the method:
(§1) Vandetanib was from LC Laboratories (Woburn, MA, USA). Ketoconazole, NADPH, methimazol and other chemicals were all purchased from Sigma-Aldrich (St. Louis, MO, USA). The purity of all chemicals met the standards of American Chemical Society, unless noted otherwise. All animal experiments were conducted in accordance with the Regulations for the Care and Use of Laboratory Animals (311/1997, Ministry of Agriculture, Czech Republic), which follows the Declaration of Helsinki. Male Wistar rats (~125–150 g; AnLab, Czech Republic), male C57BL/6 mice ([…]; CXR Bioscience Ltd., Dundee, UK), and male New Zealand rabbits (2.5–3 kg; AnLab, Czech Republic) were employed as animal models. Animals were placed in cages in temperature- and humidity-controlled rooms, acclimatized for five days and maintained at 22 °C with a 12 h light/dark period. Standardized diet and water were provided ad libitum. Rats, mice and rabbits used to prepare microsomal fraction from untreated animals were sacrificed by cervical dislocation, livers snap-frozen in liquid nitrogen and stored at −80 °C until further processing (see below). For controls, livers of the animals were removed immediately after sacrifice, divided into small pieces (~1 g), snap-frozen in liquid nitrogen, and stored at −80 °C until isolation of microsomal fractions. Pooled microsomes were used for all in vitro experiments in the present study and prepared from 10 livers/group for all animal species following established protocols. Microsomal fractions were stored at −80 °C until analysis. Protein concentrations in the microsomal fractions were assessed using the bicinchoninic acid protein assay with bovine serum albumin as a standard. Male human hepatic microsomes (pooled sample) (sample LOT: 3043885) were from Gentest Corp. (Woburn, MA, USA). Microsomes from livers of twelve human donors were obtained from Gentest Corp. (Woburn, MA, USA) (cat. no. HG43–1, HG103, HG74, HG93, HG24, HG27, HG23, HG32, HK31, HK34, HG03, and HG42). Each human microsomal sample has been characterized for CYP, FMO and protein contents and specific CYP activities by Gentest Corp. We reanalyzed each microsomal preparation for specific CYP, NADPH:CYP reductase (POR) and FMO activities by assays described in the protocols of Gentest Corp. Our data were similar to those reported by Gentest Corp. in their specification sheets. […]

The next data set relates to VEGFR and EGFR. To be noted: compared to the parent drug; cited from earlier work.
The test system of data set [1] is human hepatic microsomes. The experiment in a line: Oxidation of vandetanib by human hepatic microsomes. It is filed as in vitro ADME. The source says: The reaction was initiated by adding vandetanib.
For the next data set, the system named is mouse hepatic microsomes. Nature of the data set: Oxidation of vandetanib by mouse hepatic microsomes. In kind it is in vitro ADME. To be noted: 50 µM vandetanib, N-oxide higher. Here is the method:
(§2) Vandetanib was from LC Laboratories (Woburn, MA, USA). Ketoconazole, NADPH, methimazol and other chemicals were all purchased from Sigma-Aldrich (St. Louis, MO, USA). The purity of all chemicals met the standards of American Chemical Society, unless noted otherwise. All animal experiments were conducted in accordance with the Regulations for the Care and Use of Laboratory Animals (311/1997, Ministry of Agriculture, Czech Republic), which follows the Declaration of Helsinki. Male Wistar rats (~125–150 g; AnLab, Czech Republic), male C57BL/6 mice ([…]; CXR Bioscience Ltd., Dundee, UK), and male New Zealand rabbits (2.5–3 kg; AnLab, Czech Republic) were employed as animal models. Animals were placed in cages in temperature- and humidity-controlled rooms, acclimatized for five days and maintained at 22 °C with a 12 h light/dark period. Standardized diet and water were provided ad libitum. Rats, mice and rabbits used to prepare microsomal fraction from untreated animals were sacrificed by cervical dislocation, livers snap-frozen in liquid nitrogen and stored at −80 °C until further processing (see below). […] Protein concentrations in the microsomal fractions were assessed using the bicinchoninic acid protein assay with bovine serum albumin as a standard. […]

In another data set the test system is human recombinant FMO1. The experiment in a line: Vandetanib oxidation by human recombinant FMOs (Supersomes). In kind it is in vitro ADME. To be noted: recombinant FMO1 vs FMO3. Here is the method:
as §2

Data set [2] concerns human hepatic microsomes. The experiment in a line: Correlation of CYP- and FMO-linked activities with vandetanib metabolite formation in human hepatic microsomes. To be noted: 12 human liver microsomal samples; for Correlation coefficient (r) of metabolite amount with CYP2E1 activity: chlorzoxazone-6-hydroxylase. In kind it is in vitro ADME. The procedure: as §1, with “sheets. The content of CYP, specific CYP and FMO activities in each human hepatic microsomes [phenacetin-O-deethylation (CYP1A2), coumarin-7-hydroxylation (CYP2A6), (S)-mephenytoin-N-demethylase (CYP2B6), paclitaxel-6α-hydroxylation (CYP2C8), diclofenac-4’-hydroxylation (CYP2C9), (S)-mephenytoin-4′-hydroxylation (CYP2C19), bufuralol-1’-hydroxylation (CYP2D6), chlorzoxazone-6-hydroxylation (CYP2E1), testosterone-6β-hydroxylation (CYP3A4), lauric acid-12-hydroxylation (CYP4A), methyl-p-tolyl sulfide oxidase (FMO)] are shown in Table 2. Human recombinant enzymes were used in the forms of Supersomes™ and obtained from Gentest Corp. In Supersomes™ microsomal fractions were isolated from insect cells that are transfected with baculovirus constructs containing cDNA of human CYP enzymes (CYP1A1/2, 1B1, 2A6, 2B6, 2C8/9/18/19/, 2D6, 2E1, 3A4). These Supersomes™ also express NADPH:CYP oxidoreductase (POR). However, because they are microsomes (particles of broken endoplasmic reticulum), other enzymes (proteins) of the endoplasmic reticulum membrane (like NADH:cytochrome b5 reductase and cytochrome b5) are also expressed at basal levels in these Supersomes™. We also utilized Supersomes™ which over-expressed cytochrome b5, in a molar ratio of CYP to cytochrome b5 of 1 to 5. In Supersomes™ where cytochrome b5 was not over-expressed (see above) pure cytochrome b5 was added to reach a molar ratio of CYP to cytochrome b5 of 1 to 5. Reconstitution of Supersomes™ with purified cytochrome b5 was performed as described previously.” for “sheets.”
On the technique in general: Liver microsomes are a subcellular fraction often used to study metabolism.

Another data set concerns rat hepatic microsomes. The experiment in a line: Oxidation of vandetanib by rat hepatic microsomes. It is filed as in vitro ADME. To be noted: 50 µM vandetanib, N-oxide higher. Here is the method:
as §2

For data set [3], the system named is rabbit hepatic microsomes. Nature of the data set: Oxidation of vandetanib by rabbit hepatic microsomes. In kind it is in vitro ADME. To be noted: 50 µM vandetanib, N-oxide higher. The procedure:
as §2

Data set [4] deals with human liver microsomes. The experiment in a line: Vandetanib metabolite formation by hepatic microsomes of 12 human donors. It is filed as in vitro ADME. Particulars: human hepatic microsomal sample HK23; detection limit < 0.002.
For data set [5], the system named is human liver microsomes. The data set is described as above. To be noted: detection limit < 0.002. It is filed as in vitro ADME. The procedure: as §1, with “sheets. The content of CYP, specific CYP and FMO activities in each human hepatic microsomes [phenacetin-O-deethylation (CYP1A2), coumarin-7-hydroxylation (CYP2A6), (S)-mephenytoin-N-demethylase (CYP2B6), paclitaxel-6α-hydroxylation (CYP2C8), diclofenac-4’-hydroxylation (CYP2C9), (S)-mephenytoin-4′-hydroxylation (CYP2C19), bufuralol-1’-hydroxylation (CYP2D6), chlorzoxazone-6-hydroxylation (CYP2E1), testosterone-6β-hydroxylation (CYP3A4), lauric acid-12-hydroxylation (CYP4A), methyl-p-tolyl sulfide oxidase (FMO)] are shown in Table 2. Human recombinant enzymes were used in the forms of Supersomes™ and obtained from Gentest Corp. In Supersomes™ microsomal fractions were isolated from insect cells that are transfected with baculovirus constructs containing cDNA of human CYP enzymes (CYP1A1/2, 1B1, 2A6, 2B6, 2C8/9/18/19/, 2D6, 2E1, 3A4). These Supersomes™ also express NADPH:CYP oxidoreductase (POR). However, because they are microsomes (particles of broken endoplasmic reticulum), other enzymes (proteins) of the endoplasmic reticulum membrane (like NADH:cytochrome b5 reductase and cytochrome b5) are also expressed at basal levels in these Supersomes™. We also utilized Supersomes™ which over-expressed cytochrome b5, in a molar ratio of CYP to cytochrome b5 of 1 to 5. In Supersomes™ where cytochrome b5 was not over-expressed (see above) pure cytochrome b5 was added to reach a molar ratio of CYP to cytochrome b5 of 1 to 5. Reconstitution of Supersomes™ with purified cytochrome b5 was performed as described previously.” for “sheets.”

Data set [6] deals with CYP enzymes in human liver microsomes (Homo sapiens, UniProt P08684). The experiment in a line: Effects of inhibitors on N-desmethylvandetanib formation in human liver microsomes. To be noted: inhibitor 50 μM equimolar to vandetanib (50 μM), 0.1 nmol microsomal CYP. The procedure: After the incubations, 5 µL of 1 mM phenacetine (dissolved in methanol) was added as internal standard. The reaction was stopped by extraction with dichlormethane (2 × 1 mL).
CYP enzymes in human liver microsomes, sequence (P08684 2-503): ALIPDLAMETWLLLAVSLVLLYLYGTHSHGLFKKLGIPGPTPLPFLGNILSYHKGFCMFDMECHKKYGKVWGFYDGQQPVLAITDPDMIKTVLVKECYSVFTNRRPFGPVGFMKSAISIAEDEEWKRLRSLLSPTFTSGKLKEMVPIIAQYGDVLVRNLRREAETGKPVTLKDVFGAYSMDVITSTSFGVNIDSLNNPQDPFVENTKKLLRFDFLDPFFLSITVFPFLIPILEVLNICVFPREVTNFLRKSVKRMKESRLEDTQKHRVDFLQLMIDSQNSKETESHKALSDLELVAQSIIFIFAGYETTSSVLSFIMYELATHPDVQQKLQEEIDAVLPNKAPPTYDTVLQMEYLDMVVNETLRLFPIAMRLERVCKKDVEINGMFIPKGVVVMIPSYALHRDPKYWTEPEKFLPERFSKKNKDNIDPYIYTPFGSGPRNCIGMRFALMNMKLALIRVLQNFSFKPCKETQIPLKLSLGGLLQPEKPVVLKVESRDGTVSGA
CYP enzymes in human liver microsomes, sequence (P16435 2-677, further chain): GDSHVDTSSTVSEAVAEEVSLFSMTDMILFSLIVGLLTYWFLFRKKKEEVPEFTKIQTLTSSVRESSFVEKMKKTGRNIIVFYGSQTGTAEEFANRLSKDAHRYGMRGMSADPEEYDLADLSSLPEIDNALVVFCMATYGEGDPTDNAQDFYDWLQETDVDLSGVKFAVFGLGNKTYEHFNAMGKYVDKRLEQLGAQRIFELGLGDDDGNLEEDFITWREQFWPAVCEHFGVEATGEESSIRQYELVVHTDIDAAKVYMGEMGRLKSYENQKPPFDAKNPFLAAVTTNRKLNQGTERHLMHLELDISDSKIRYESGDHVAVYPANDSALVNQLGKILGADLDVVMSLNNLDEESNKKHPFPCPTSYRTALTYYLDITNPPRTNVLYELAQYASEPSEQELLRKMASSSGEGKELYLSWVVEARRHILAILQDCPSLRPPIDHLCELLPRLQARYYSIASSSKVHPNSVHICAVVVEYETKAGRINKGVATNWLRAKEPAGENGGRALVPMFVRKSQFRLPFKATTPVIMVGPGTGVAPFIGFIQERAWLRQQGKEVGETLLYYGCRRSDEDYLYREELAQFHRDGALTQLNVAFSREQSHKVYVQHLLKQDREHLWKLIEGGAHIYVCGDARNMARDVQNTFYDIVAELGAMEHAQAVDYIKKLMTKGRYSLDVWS
Inhibition studies in human liver microsomes were essentially conducted as reported previously.

For the molecule `CCC(C)n1ncn(-c2ccc(N3CCN(c4ccc(OCC5COC(Cn6cncn6)(c6ccc(Cl)cc6Cl)O5)cc4)CC3)cc2)c1=O` (stereo not shown) [itraconazol], in the data set on CYP3A4, the “inhibition of the formation of N-desmethylvandetanib after vandetanib treatment” value is “almost ineffective”.
As to `COc1cc2c(Nc3ccc(Br)cc3F)ncnc2cc1OCC1CCN(C)CC1` [vandetanib, N-(4-bromo-2-fluorophenyl)-6-methoxy-7-[(1-methylpiperidin-4-yl)-methoxy]-quinazolin-4-amine, reference compound], the “VMax, maximal velocity of N-desmethylvandetanib formation” value on human recombinant CYP1A1 (CYP1A1, hyperbolic kinetics) is 0.76 ± 0.02 peak area/min/nmol CYP. For the same molecule, the “K0.5, substrate concentration corresponding to half-maximal velocity” value on human recombinant CYP1A1 (CYP1A1, oxidation to N-desmethylvandetanib) was 35.12 ± 2.75 µM.
Take `COc1cc2c(Nc3ccc(Br)cc3F)ncnc2cc1OCC1CC[N+](C)([O-])CC1` (stereo not shown) [vandetanib-N-oxide]: in the data set with VEGFR and EGFR, the “pharmacological activity relative to vandetanib (fold less active)” value is given as “more than 50 fold”. In addition, the “vandetanib-N-oxide formed at fold lower amounts than N-desmethylvandetanib” value in the data set with human hepatic microsomes [1] is ~ 4 fold. Further, the “F, fold difference between formation of N-desmethylvandetanib and vandetanib-N-oxide” value (in the data set with mouse hepatic microsomes; in the data set with rat hepatic microsomes; in data set [3]) was 4- to 8 fold throughout. For the same molecule, the “efficiency of FMO1 to form vandetanib-N-oxide relative to FMO3” value in the data set on human recombinant FMO1 is reported as “over 5 times”. The “Correlation coefficient (r) of metabolite amount with POR” value with human hepatic microsomes [2] was found to be 0.035. In the data set on human hepatic microsomes [2], the “Correlation coefficient (r) of metabolite amount with Total CYPs” value turned out to be 0.166. For the same molecule, the “Correlation coefficient (r) of metabolite amount with CYP2C19 activity” value in the data set on human hepatic microsomes [2] ((S)-mephenytoin-4′-hydroxylase) was found to be 0.088. Also, in the data set on human hepatic microsomes [2] ((S)-mephenytoin-N-demethylase), the “Correlation coefficient (r) of metabolite amount with CYP2B6 activity” value is listed as 0.093. In addition, the “Correlation coefficient (r) of metabolite amount with CYP2D6 activity” value in the data set on human hepatic microsomes [2] (bufuralol-1′-hydroxylase) was −0.343. Further, the “Correlation coefficient (r) of metabolite amount with CYP2E1 activity” value with human hepatic microsomes [2] is recorded as 0.714; in the data set on human hepatic microsomes [2] (listed as M2) it was 0.714 **. Moreover, the “Correlation coefficient (r) of metabolite amount with CYP2A6 activity” value with human hepatic microsomes [2] (coumarine-7-hydroxylase) is listed as −0.339. Further, the “Correlation coefficient (r) of metabolite amount with CYP2C9 activity” value in the data set on human hepatic microsomes [2] (diclofenac-4′-hydroxylase) was −0.039. Further, the “Correlation coefficient (r) of metabolite amount with FMO activity” value in the data set with human hepatic microsomes [2] (methyl-p-tolyl sulfide oxidase, listed as M2) is listed as 0.736 **. Further, in the data set with human hepatic microsomes [2] (paclitaxel-6α-hydroxylase), the “Correlation coefficient (r) of metabolite amount with CYP2C8 activity” value is given as 0.288. For the same molecule, the “Correlation coefficient (r) of metabolite amount with CYP1A2 activity” value in the data set with human hepatic microsomes [2] (phenacetin-O-deethylase) is on record as −0.157. Moreover, in the data set on human hepatic microsomes [2] (testosterone-6β-hydroxylase), the “Correlation coefficient (r) of metabolite amount with CYP3A4 activity” value is −0.200. In addition, the “vandetanib-N-oxide (M2) formed” value is 0.008 peak area/(mg protein × min) with human liver microsomes [4]; 0.004 peak area/(mg protein × min) in the data set with human liver microsomes [5] (human hepatic microsomal sample HG24); 0.015 peak area/(mg protein × min) in the data set on human liver microsomes [5] (human hepatic microsomal sample HG42); 0.004 peak area/(mg protein × min) in the data set on human liver microsomes [5] (human hepatic microsomal sample HG74); 0.112 peak area/(mg protein × min) with human liver microsomes [5] (human hepatic microsomal sample HG93); 0.004 peak area/(mg protein × min) in the data set on human liver microsomes [5] (human hepatic microsomal sample HG103). Besides, the “vandetanib-N-oxide (M2) formed” value in the data set on human liver microsomes [5] (human hepatic microsomal sample HK31) is 0.015 peak area/(mg protein × min).
As to `O=c1cc(-c2ccccc2)oc2c1ccc1ccccc12` [α-Napththoflavone, α-naphthoflavone], the “% of Inhibition, N-Desmethyvandetanib Formation” value in [6] is 0%; in [6] (listed as α-NF), “no inhibitory effects”.
